Data published in the NIST ThermoML archive (doi:10.1016/j.jct.2016.12.037).

What was measured:
[1] = xn = mol fraction of the nth substance listed; settings: 100 kPa, Liquid, x1 = 1; for viscosity: Concentric cylinders viscometry; for mass density: Vibrating tube method
[2] = 100 kPa, Liquid; for viscosity: Concentric cylinders viscometry; for mass density: Vibrating tube method

CCCCn1cc[n+](C)c1.[Cl-] [1-butyl-3-methylimidazolium chloride] + CCCC[n+]1ccn(C)c1.O=S(=O)([N-]S(=O)(=O)C(F)(F)F)C(F)(F)F
[1]
Settings | mass density [kg/m3] | viscosity [mPa·s]
348.15 K | 1053.9 | 217
353.15 K | 1051.2 | 162.1
358.15 K | 1048.5 | 123.3
363.15 K | 1045.9 | 95.6
368.15 K | 1043.3 | 75.39
373.15 K | 1040.8 | 60.26

CCCCn1cc[n+](C)c1.[Cl-] [1-butyl-3-methylimidazolium chloride]
[2]
Settings | mass density [kg/m3] | viscosity [mPa·s]
348.15 K | 1053.9 | 217
353.15 K | 1051.2 | 162.1
358.15 K | 1048.5 | 123.3
363.15 K | 1045.9 | 95.6
368.15 K | 1043.3 | 75.39
373.15 K | 1040.8 | 60.26
